Laboratory results reported in PMC8507260, “A2E-induced inflammation and angiogenesis in RPE cells in vitro are modulated by PPAR-α, -β/δ, -γ, and RXR antagonists and by norbixin” (Aging (Albany NY), 2021).
“Also recorded” adds a separate entry of the source. Where two headings read alike, the source gives them in different places.

Tests used:
[1] = system: IL-8; assay: IL-8 mRNA expression by quantitative RT-PCR in porcine RPE cells; assay type: cell-based
Procedure: (§1) Pig eyes were obtained from a local slaughterhouse and transported to the laboratory in ice-cold Ringer solution. After removal of the anterior segment of the eye, the vitreous and neural retina was separated from the RPE and removed. The eyecup was washed twice with phosphate buffer saline (PBS), filled with trypsin (0.25% in PBS) and incubated at 37°C for 1.5 h. RPE cells were harvested by gently pipetting, centrifuged to remove trypsin and re-suspended in Dulbecco’s Modified Eagle Medium (DMEM) supplemented with 20% (v/v) foetal-calf serum (DMEM20%FCS) and 0.1% gentamycin. Cells were seeded into 60 mm diameter Petri dishes, cultured in an atmosphere of 5% CO2/95% air at 37°C, and supplied with fresh medium after 24 hours and 4 days in vitro. For experiments aimed at measuring mRNA or protein expression in RPE, cells were trypsinized after one week in culture and transferred to 24-well or 6-well plates at a density of 1.5 × 10^5 cells/cm^2 in DMEM2%FCS. Norbixin or agonists were added to the medium 24 h after seeding, and antagonists were added to the medium 24 h later. A2E treatment was performed during 19 h before cellular sample preparation. All the drugs used in these experiments were prepared as stock solutions in DMSO.
(§2) Total RNA was extracted using the NucleoSpin® RNA kit according to manufacturer’s instructions. RT of 500 ng of RNA was performed using the SuperScript III Reverse Transcriptase following the manufacturer’s instructions. Five ng of cDNA were amplified using the SYBR GREEN real-time PCR method. PCR primers for target genes and housekeeping gene GAPDH were designed using Primer3Plus Bioinformatic software (Table 2). The RT-PCR using the StepOne Plus (Life Technologies, Carlsbad, CA, USA) consisted of incubation at 50°C for 5 min followed by 40 cycles of 95°C for 15 s and of 60°C for 1 min. The reaction was completed by a melt curve stage at 95°C for 15 s, 60°C for 1 min, 95°C for 15 s and a final step at 60°C for 15 s. The relative mRNA expression was calculated using the comparative threshold method (Ct-method) with GAPDH for normalization. All experimental conditions were processed in triplicate and each experiment was done at least 3 times.

[2] = molecular target: T1, PPAR-γ (Homo sapiens, UniProt P37231); assay: Competition binding to PPAR-γ against [3H]rosiglitazone (Eurofins Cerep); design: Eurofins Cerep (contract laboratory that ran the assay); conditions: competition with [3H]rosiglitazone
T1 sequence (P37231 1-505): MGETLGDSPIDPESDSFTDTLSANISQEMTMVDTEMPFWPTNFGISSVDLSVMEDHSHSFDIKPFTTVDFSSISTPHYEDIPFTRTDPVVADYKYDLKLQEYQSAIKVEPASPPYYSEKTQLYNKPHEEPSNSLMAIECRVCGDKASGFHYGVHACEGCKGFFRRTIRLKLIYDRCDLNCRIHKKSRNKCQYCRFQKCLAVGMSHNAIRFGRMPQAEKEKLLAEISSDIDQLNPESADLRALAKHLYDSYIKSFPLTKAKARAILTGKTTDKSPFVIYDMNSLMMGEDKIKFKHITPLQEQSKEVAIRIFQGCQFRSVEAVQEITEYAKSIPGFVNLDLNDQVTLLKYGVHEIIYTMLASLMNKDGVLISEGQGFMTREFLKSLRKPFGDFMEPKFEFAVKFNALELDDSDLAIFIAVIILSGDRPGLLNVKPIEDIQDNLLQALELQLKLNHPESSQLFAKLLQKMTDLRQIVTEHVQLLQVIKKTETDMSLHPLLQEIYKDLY
Text: (§3) The binding and activity of norbixin on PPARs remains controversial, thus, firstly, we performed competition experiments in vitro between norbixin and [^3H] GW7647, an agonist of PPAR-α, and [^3H] rosiglitazone, an agonist of PPAR-γ. […] Secondly, we tested whether norbixin could induce the transactivation of PPAR-α, -β/δ or -γ in the context of RPE cells in vitro by co-transfecting porcine RPE cells with a plasmid expressing each of the full-length PPAR isoforms and a plasmid expressing luciferase under the control of the PPAR response element. […] Then, we wanted to determine if norbixin could modulate the transactivation of PPAR isoforms induced by specific agonists.
Binding studies of A2E and norbixin to RXR-α and PPAR-α and γ were performed in vitro by an external laboratory (Eurofins Cerep, Celle L’Evescault, France) through competition experiments between A2E or norbixin and [^3H]9-cis-retinoic acid as the natural ligand of RXR-α, [^3H]GW7647 an agonist of PPAR-α and [^3H]Rosiglitazone an agonist of PPAR-γ.

[3] = molecular target: T2, PPAR-β/δ (Homo sapiens, UniProt Q03181); assay: In vitro antagonist assay on PPAR-β/δ; assay type: biochemical
T2 sequence (Q03181 1-441): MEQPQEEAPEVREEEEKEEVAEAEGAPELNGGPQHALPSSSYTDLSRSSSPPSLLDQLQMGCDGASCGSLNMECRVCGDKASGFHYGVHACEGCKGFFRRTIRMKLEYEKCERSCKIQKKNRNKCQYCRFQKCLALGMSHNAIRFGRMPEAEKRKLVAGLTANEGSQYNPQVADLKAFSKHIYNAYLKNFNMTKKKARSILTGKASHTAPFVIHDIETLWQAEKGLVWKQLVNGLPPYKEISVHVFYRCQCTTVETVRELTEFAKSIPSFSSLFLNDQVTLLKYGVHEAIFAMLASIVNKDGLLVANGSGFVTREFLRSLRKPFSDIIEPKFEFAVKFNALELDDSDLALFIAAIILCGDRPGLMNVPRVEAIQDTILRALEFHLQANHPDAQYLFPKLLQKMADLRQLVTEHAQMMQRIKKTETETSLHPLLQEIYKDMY
Text: as §3

[4] = system: ERK; assay: ERK phosphorylation by western blot in primary porcine RPE cells; assay type: cell-based
Procedure: as §1, with “Norbixin or agonists were added to the medium 24 h after seeding, and antagonists were added to the medium 24 h later. A2E treatment was performed during 19 h before cellular sample preparation. All the drugs used in these experiments were prepared as stock solutions in DMSO.” left out
RPE samples were lysed in 20 mM Tris-HCl, 150 mM NaCl, 1 mM EDTA, 1% NP-40, pH 7.5 buffer containing a cocktail of protease and phosphatase inhibitors. […] The signal was developed using enhanced chemiluminescence reagents (ECL) prime detection kit, quantified by densitometry using Bio1D (Vilber Lourmat, Germany) and normalized by GAPDH levels. […]

[5] = molecular target: T1, PPAR-γ; design: Eurofins Cerep (contract laboratory that ran the assay); method as in PMID 19891958; conditions: cited from earlier work
[6] = system: IL-6; assay: IL-6 mRNA expression by quantitative RT-PCR in porcine RPE cells; assay type: cell-based; conditions: T007907 10 μM
Procedure: as §1, §2

[7] = system: VEGF; assay: VEGF mRNA expression by quantitative RT-PCR in porcine RPE cells; assay type: cell-based
Procedure: as §1
as §2, with “All experimental conditions were processed in triplicate and each experiment was done at least 3 times.” left out

Structure (SMILES)	inhibition of IL-8 mRNA expression induced by A2E ([1]; NBX 20 μM + A2E 30 μM)	IC50 [2]	Kd [2]	IC50 [3]	effect on ERK phosphorylation induced by A2E ([4]; NBX 20 μM + A2E 30 μM)	PPAR-γ transactivation in 3T3-L1 adipocytes ([5]; norbixin at 20 μM)	PPAR-γ transactivation in 3T3-L1 adipocytes ([5]; norbixin at 70 μM)	reduction of IL-6 mRNA expression induced by A2E ([6]; NBX 20 μM with A2E 30 μM, MK886 1 μM, GSK3787 1 μM, HX531 5 μM with A2E 20 μM)	effect on VEGF mRNA expression induced by A2E ([7]; NBX 20 μM with A2E 30 μM, MK886 1 μM, GSK3787 1 μM, T007907 10 μM, alone or as mixture, with A2E 20 μM)	effect of the compound alone on IL-8 mRNA expression ([1]; vs DMSO control)	effect of the compound alone on ERK phosphorylation ([4]; A2E 30 μM vs DMSO control)	effect of the compound alone on IL-6 mRNA expression ([6]; vs DMSO control)	enhancement of VEGF mRNA expression by the compound alone ([7]; A2E 30 μM vs DMSO control)
CC(/C=C/C=C(C)/C=C/C(=O)O)=C\C=C\C=C(C)\C=C\C=C(C)\C=C\C(=O)O (stereo in doubt) [norbixin, 9’-cis-norbixin]	approximately 23 fold	1.9 µM	1 µM	9.9 µM	not significantly inhibited	does not induce; also recorded: did not induce	induces a limited transactivation	145%	significantly inhibited				
CC(C=CC1=C(C)CCCC1(C)C)=CC=CC(C)=Cc1cc(C=CC=C(C)C=CC2=C(C)CCCC2(C)C)cc[n+]1CCO [A2E, N-retinylidene-N-retinylethanolamine]		25.5 µM	14 µM							induces the expression	induced the phosphorylation	induces the expression	approximately 9 fold
